Data: US20230151025A1, “SUBSTITUTED THIAZOLOPYRIDINES, SALTS THEREOF AND THEIR USE AS HERBICIDALLY ACTIVE SUBSTANCES” (Bayer Aktiengesellschaft, priority 2020, published 2023)

Legend:
Assay type in all cases: in vivo
Veronica persica (VERPE) [1] = assay: Herbicidal post-emergence action (B), 1280 g/ha
Method in brief: (§1)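 Greenhouse-grown weeds at the one-leaf stage received a foliar spray of the formulated compound (WP or EC, 0.5% additive, 600 L/ha). Damage was scored visually after about 3 weeks on a 0–100% scale against untreated plants.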

Poa annua (POAAN) [2] = assay: Herbicidal post-emergence action (B), 1280 g/ha; conditions: rated visually after about 3 weeks vs untreated controls
Method in brief: as §1

[3] = tested on: Amaranthus retroflexus (AMARE); assay: Herbicidal post-emergence action (B), 1280 g/ha; conditions: rated visually after about 3 weeks vs untreated controls
Method in brief: as §1

[4] = tested on: Kochia scoparia (KCHSC; Bassia scoparia); assay: Herbicidal post-emergence action (B), 1280 g/ha
Method in brief: as §1

Stellaria media (STEME) [5] = assay: Herbicidal post-emergence action (B), 1280 g/ha
Method in brief: as §1

[6] = tested on: Alopecurus myosuroides (ALOMY); assay: Herbicidal post-emergence action (B), 1280 g/ha; conditions: rated visually after about 3 weeks vs untreated controls
Method in brief: as §1

Lolium rigidum (LOLRI) [7] = assay: Herbicidal pre-emergence action (A), 1280 g/ha; conditions: visual grading after ca. 3 weeks vs untreated controls, 100% = plants have died off, 0% = as control plants
Method in brief: (§2)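 Visual grading of plant damage in percent (0% as untreated control, 100% dead) was done about 3 weeks after treatment. Compounds, as WP or EC in water with 0.5% additive, had been sprayed at 600 l/ha onto the covering soil of freshly sown sandy loam pots.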

Veronica persica (VERPE) [8] = assay: Herbicidal pre-emergence action (A), 1280 g/ha; conditions: visual grading after ca. 3 weeks vs untreated controls
Method in brief: as §2

Poa annua (POAAN) [9] = assay: Herbicidal pre-emergence action (A), 1280 g/ha; conditions: visual grading after ca. 3 weeks vs untreated controls, 100% = plants have died off, 0% = as control plants
Method in brief: as §2

[10] = tested on: Amaranthus retroflexus (AMARE); assay: Herbicidal pre-emergence action (A), 1280 g/ha; conditions: visual grading after ca. 3 weeks vs untreated controls
Method in brief: as §2

[11] = tested on: Kochia scoparia (KCHSC; Bassia scoparia); assay: Herbicidal pre-emergence action (A), 1280 g/ha; conditions: visual grading after ca. 3 weeks vs untreated controls
Method in brief: as §2

[12] = tested on: Echinochloa crus-galli (ECHCG); assay: Herbicidal pre-emergence action (A), 1280 g/ha; conditions: visual grading after ca. 3 weeks vs untreated controls, 100% = plants have died off, 0% = as control plants
Method in brief: as §2

Stellaria media (STEME) [13] = assay: Herbicidal pre-emergence action (A), 1280 g/ha; conditions: visual grading after ca. 3 weeks vs untreated controls
Method in brief: as §2

Setaria viridis (SETVI) [14] = assay: Herbicidal pre-emergence action (A), 1280 g/ha; conditions: visual grading after ca. 3 weeks vs untreated controls
Method in brief: as §2

[15] = tested on: Matricaria inodora (MATIN); assay: Herbicidal pre-emergence action (A), 1280 g/ha; conditions: visual grading after ca. 3 weeks vs untreated controls
Method in brief: as §2

[16] = tested on: Abutilon theophrasti (ABUTH); assay: Herbicidal pre-emergence action (A), 1280 g/ha; conditions: visual grading after ca. 3 weeks vs untreated controls, 100% = plants have died off, 0% = as control plants
Method in brief: as §2

[17] = tested on: Digitaria sanguinalis (DIGSA); assay: Herbicidal pre-emergence action (A), 1280 g/ha; conditions: visual grading after ca. 3 weeks vs untreated controls, 100% = plants have died off, 0% = as control plants
Method in brief: as §2

[18] = tested on: Alopecurus myosuroides (ALOMY); assay: Herbicidal pre-emergence action (A), 1280 g/ha; conditions: visual grading after ca. 3 weeks vs untreated controls, 100% = plants have died off, 0% = as control plants
Method in brief: as §2

Veronica persica (VERPE) [19] = assay: Herbicidal post-emergence action (D), 320 g/ha; conditions: ca. 3 weeks
Method in brief: (§3)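 Seedlings reaching the single-leaf stage 2 to 3 weeks after sowing in sandy loam received a foliar spray of the formulated compound (WP or EC, 0.5% additive, 600 l water/ha). Damage is rated visually after about 3 weeks in the greenhouse as percent effect relative to untreated plants.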

[20] = tested on: Amaranthus retroflexus (AMARE); assay: Herbicidal post-emergence action (D), 320 g/ha; conditions: ca. 3 weeks
Method in brief: as §3

[21] = tested on: Alopecurus myosuroides (ALOMY); assay: Herbicidal post-emergence action (D), 320 g/ha; conditions: ca. 3 weeks
Method in brief: as §3

[22] = tested on: Digitaria sanguinalis (DIGSA); assay: Herbicidal pre-emergence action (C), 320 g/ha; conditions: ca. 3 weeks
Text: (§4) Seeds of mono- and dicotyledonous weed plants and crop plants were sown, in plastic or organic planting pots, in sandy loam and covered with soil. The compounds according to the invention, formulated in the form of wettable powders (WP) or as emulsifiable concentrates (EC), were applied to the surface of the covering soil as aqueous suspension or emulsion, with the addition of 0.5% of an additive, at an application rate of 600 l of water/ha (converted).
(§5) Following treatment, the pots were placed in a greenhouse and kept under optimum growth conditions for the test plants. The visual grading of the damage to the test plants was carried out after ca. 3 weeks in comparison to untreated controls (herbicidal effect in percent (%): 100% effect=plants have died off, 0% effect=as control plants).
(§6) Tables C1 to C13 below show the effects of selected compounds of the general formula (I) according to table 1 on various harmful plants and an application rate corresponding to 320 g/ha obtained by the experimental procedure mentioned above.

Lolium rigidum (LOLRI) [23] = assay: Herbicidal pre-emergence action (C), 320 g/ha; conditions: ca. 3 weeks
Method in brief: (§7)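 Sandy loam pots, seeds covered with soil → WP/EC compound sprayed on soil surface (aq., +0.5% additive, 600 l/ha) → greenhouse, optimum growth → visual herbicidal effect (%) at ca. 3 wk vs untreated.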

Veronica persica (VERPE) [24] = assay: Herbicidal pre-emergence action (C), 320 g/ha; conditions: ca. 3 weeks
Method in brief: as §7

[25] = tested on: Amaranthus retroflexus (AMARE); assay: Herbicidal pre-emergence action (C), 320 g/ha; conditions: ca. 3 weeks
Method in brief: as §7

Setaria viridis (SETVI) [26] = assay: Herbicidal pre-emergence action (C), 320 g/ha; conditions: ca. 3 weeks
Method in brief: as §7

[27] = tested on: Polygonum convolvulus (POLCO); assay: Herbicidal pre-emergence action (C), 320 g/ha; conditions: ca. 3 weeks
Method in brief: as §7

[28] = tested on: Alopecurus myosuroides (ALOMY); assay: Herbicidal pre-emergence action (C), 320 g/ha; conditions: ca. 3 weeks
Method in brief: as §7

[29] = tested on: Echinochloa crus-galli (ECHCG); assay: Herbicidal post-emergence action (B), 1280 g/ha; conditions: rated visually after about 3 weeks vs untreated controls
Method in brief: as §1

[30] = tested on: Abutilon theophrasti (ABUTH); assay: Herbicidal post-emergence action (B), 1280 g/ha; conditions: rated visually after about 3 weeks vs untreated controls
Method in brief: as §1

[31] = tested on: Echinochloa crus-galli (ECHCG); assay: Herbicidal post-emergence action (D), 320 g/ha; conditions: ca. 3 weeks
Method in brief: as §3

Setaria viridis (SETVI) [32] = assay: Herbicidal post-emergence action (D), 320 g/ha; conditions: ca. 3 weeks
Method in brief: as §3

Avena fatua = assay: Herbicidal pre-emergence action (C), 320 g/ha; conditions: ca. 3 weeks
Text: as §4, §5, §6

[33] = tested on: Echinochloa crus-galli (ECHCG); assay: Herbicidal pre-emergence action (C), 320 g/ha; conditions: ca. 3 weeks
Method in brief: as §7

[34] = tested on: Matricaria inodora (MATIN); assay: Herbicidal pre-emergence action (C), 320 g/ha; conditions: ca. 3 weeks
Method in brief: as §7

[35] = tested on: Abutilon theophrasti (ABUTH); assay: Herbicidal pre-emergence action (C), 320 g/ha; conditions: ca. 3 weeks
Method in brief: as §7

Lolium rigidum (LOLRI) [36] = assay: Herbicidal post-emergence action (B), 1280 g/ha; conditions: one-leaf stage, rated after about 3 weeks vs untreated controls, 100% activity = the plants have died, 0% = like control plants
Method in brief: as §1

[37] = tested on: Polygonum convolvulus (POLCO); assay: Herbicidal post-emergence action (D), 320 g/ha; conditions: ca. 3 weeks
Method in brief: as §3

| Structure (SMILES) | herbicidal effect VERPE (Veronica persica (VERPE) [1]) | herbicidal activity POAAN (Poa annua (POAAN) [2]) | herbicidal activity AMARE [3] | herbicidal effect KCHSC [4] | herbicidal effect STEME (Stellaria media (STEME) [5]) | LOLRI, herbicidal effect in percent (%) (Lolium rigidum (LOLRI) [7]) | herbicidal effect VERPE (Veronica persica (VERPE) [8]) | POAAN, herbicidal effect in percent (%) (Poa annua (POAAN) [9]) | herbicidal effect AMARE [10] | herbicidal effect KCHSC [11] | ECHCG, herbicidal effect in percent (%) [12] | herbicidal effect STEME (Stellaria media (STEME) [13]) | herbicidal effect AMARE [20] | herbicidal effect ALOMY [21] | herbicidal effect LOLRI (Lolium rigidum (LOLRI) [23]) | herbicidal effect VERPE (Veronica persica (VERPE) [24]) | herbicidal effect AMARE [25] | herbicidal effect SETVI (Setaria viridis (SETVI) [26]) | herbicidal effect POLCO [27] | herbicidal effect ALOMY [28] | other results |
| --- | --- | --- | --- | --- | --- | --- | --- | --- | --- | --- | --- | --- | --- | --- | --- | --- | --- | --- | --- | --- | --- |
| Cc1cc2scnc2nc1C12CCCCC1O2 (centres unmarked) [Example I-151] | 100% | 100% | 100% | 100% | 100% | 100% | 90% | 100% | 100% | 100% | 100% | 100% | 80% | 80% | 90% | 90% | 90% | 100% | 80% | 100% | herbicidal activity ALOMY [6]: 100%; herbicidal effect SETVI (Setaria viridis (SETVI) [14]): 100%; herbicidal effect MATIN [15]: 90%; ABUTH, herbicidal effect in percent (%) [16]: 90%; DIGSA, herbicidal effect in percent (%) [17]: 100%; ALOMY, herbicidal effect in percent (%) [18]: 100%; herbicidal effect VERPE (Veronica persica (VERPE) [19]): 80%; herbicidal effect DIGSA [22]: 100% |
| Cc1cscc1-c1nc2ncsc2cc1C [Example I-193] | 90% | 100% | 100% | 90% | 90% | 100% | 90% | 100% | 90% | 90% | 100% | 100% | 80% | 90% | 100% | 80% | 90% | 100% | 80% | 100% | herbicidal activity ECHCG [29]: 100%; herbicidal activity ABUTH [30]: 90%; herbicidal effect SETVI (Setaria viridis (SETVI) [14]): 100%; herbicidal effect MATIN [15]: 90%; ALOMY, herbicidal effect in percent (%) [18]: 90%; herbicidal effect ECHCG [31]: 80%; herbicidal effect SETVI (Setaria viridis (SETVI) [32]): 80%; herbicidal effect AVEFA (Avena fatua): 80%; herbicidal effect ECHCG [33]: 100%; herbicidal effect MATIN [34]: 80%; herbicidal effect ABUTH [35]: 80% |
| Cc1cccc(F)c1-c1nc2ncsc2cc1Cl [Example I-013] | 100% | 90% | 100% | 100% | 100% | 100% | 90% | 100% | 90% | 100% | 100% | 100% | 80% | 80% | 100% | 80% | 90% | 100% | 80% | 100% | LOLRI, activity rated visually (%) (Lolium rigidum (LOLRI) [36]): 90%; herbicidal activity ECHCG [29]: 100%; herbicidal activity ALOMY [6]: 100%; herbicidal effect SETVI (Setaria viridis (SETVI) [14]): 100%; herbicidal effect MATIN [15]: 90%; ABUTH, herbicidal effect in percent (%) [16]: 90%; DIGSA, herbicidal effect in percent (%) [17]: 100%; ALOMY, herbicidal effect in percent (%) [18]: 100%; herbicidal effect VERPE (Veronica persica (VERPE) [19]): 80%; herbicidal effect ECHCG [33]: 100% |
| Fc1ccccc1-c1nc2ncsc2cc1Br [Example I-012] |  |  |  |  |  |  |  |  |  |  |  |  | 90% | 90% | 100% | 80% | 90% | 100% | 80% | 100% | herbicidal effect ECHCG [31]: 80%; herbicidal effect SETVI (Setaria viridis (SETVI) [32]): 90%; herbicidal effect POLCO [37]: 90%; herbicidal effect AVEFA (Avena fatua): 100%; herbicidal effect ECHCG [33]: 100%; herbicidal effect MATIN [34]: 90%; herbicidal effect ABUTH [35]: 80% |
